Results as given in ChEMBL document CHEMBL5729675, “Sulfonamide compound or salt thereof” (2023).

Biological target: Ribonucleotide reductase (Homo sapiens, UniProt P23921+Q7LG56)
Assay: Human RNR Inhibition Effect: The inhibitory activity against the ribonucleotide reduction reaction (hereinafter referred to as RNR reaction) of the test compound was determined by measuring the formation of deoxycytidine diphosphate (hereinafter referred to as dCDP) from cytidine diphosphate (hereinafter referred to as CDP) by the following method.Human M1 subunit and human M2 subunit (mutant …

Ribonucleotide reductase, sequence (P23921 whole entry, looked up): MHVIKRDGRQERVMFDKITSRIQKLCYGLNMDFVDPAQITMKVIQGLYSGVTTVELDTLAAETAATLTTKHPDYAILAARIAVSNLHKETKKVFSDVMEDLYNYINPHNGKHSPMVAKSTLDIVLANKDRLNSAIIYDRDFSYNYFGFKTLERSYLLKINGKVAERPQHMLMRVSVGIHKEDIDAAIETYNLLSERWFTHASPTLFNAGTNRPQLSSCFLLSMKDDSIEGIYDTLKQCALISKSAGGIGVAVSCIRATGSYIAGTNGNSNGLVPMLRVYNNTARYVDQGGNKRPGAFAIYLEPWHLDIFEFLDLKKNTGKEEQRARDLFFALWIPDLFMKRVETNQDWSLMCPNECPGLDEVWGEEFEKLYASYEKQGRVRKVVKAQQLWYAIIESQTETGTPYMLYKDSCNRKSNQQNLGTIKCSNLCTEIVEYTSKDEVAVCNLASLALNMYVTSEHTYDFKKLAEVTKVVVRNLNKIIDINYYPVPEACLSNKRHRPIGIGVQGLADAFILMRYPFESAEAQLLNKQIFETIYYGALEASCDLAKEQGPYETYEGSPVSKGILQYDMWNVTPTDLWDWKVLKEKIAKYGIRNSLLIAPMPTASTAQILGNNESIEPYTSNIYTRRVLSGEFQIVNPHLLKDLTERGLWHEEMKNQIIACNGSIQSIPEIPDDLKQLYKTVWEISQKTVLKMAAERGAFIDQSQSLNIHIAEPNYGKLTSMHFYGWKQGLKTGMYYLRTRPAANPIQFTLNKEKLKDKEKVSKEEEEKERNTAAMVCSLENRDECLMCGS
Ribonucleotide reductase, sequence (Q7LG56 whole entry, looked up): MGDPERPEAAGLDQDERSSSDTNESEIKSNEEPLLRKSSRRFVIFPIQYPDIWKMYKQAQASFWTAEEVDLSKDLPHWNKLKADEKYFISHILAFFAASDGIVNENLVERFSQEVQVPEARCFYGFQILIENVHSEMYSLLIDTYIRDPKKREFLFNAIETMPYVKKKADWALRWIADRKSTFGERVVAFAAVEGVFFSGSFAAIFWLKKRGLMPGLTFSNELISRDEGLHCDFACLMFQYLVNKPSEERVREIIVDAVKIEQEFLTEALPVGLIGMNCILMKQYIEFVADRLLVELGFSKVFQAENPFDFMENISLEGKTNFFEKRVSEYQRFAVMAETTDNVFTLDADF

SMILES | IC50 [nM]
Cc1c(Cl)ccc(F)c1[C@@H](C)[C@H](NS(=O)(=O)c1ccc(Br)cc1C(N)=O)c1n[nH]c(=O)o1 | 150
Cc1ccc(F)c([C@@H](C)[C@H](NS(=O)(=O)c2ccc(Cl)cc2C(N)=O)c2n[nH]c(=O)o2)c1Cl | 500
CCN1CCOc2c(S(=O)(=O)N[C@H](c3n[nH]c(=O)o3)[C@H](C)c3c(F)ccc(C)c3C)ccc(Cl)c21 | 110
Cc1ccc(F)c([C@@H](C)[C@H](NS(=O)(=O)c2ccc(Br)cc2C(N)=O)c2n[nH]c(=O)o2)c1C | 60
Cc1ccc(F)c([C@@H](C)[C@H](NS(=O)(=O)c2cc(C(=O)N3CCOCC3)ccc2C(N)=O)c2n[nH]c(=O)o2)c1C | 110
COc1cc(Cl)ccc1S(=O)(=O)N[C@H](c1n[nH]c(=O)o1)C(C)c1c(F)c(F)cc(C)c1Br (stereo not given in full) | 420
Cc1ccc(F)c([C@@H](C)[C@H](NS(=O)(=O)c2ccc(Cl)c(C(=O)N3CCCC3)n2)c2n[nH]c(=O)o2)c1C | 60
COc1cc(Cl)ccc1S(=O)(=O)N[C@H](c1n[nH]c(=O)o1)[C@H](C)c1cccc2cccc(C)c12 | 240
Cc1ccc(F)c([C@@H](C)[C@H](NS(=O)(=O)c2cc(C(=O)O)c(Cl)cc2C(N)=O)c2n[nH]c(=O)o2)c1C | 190
Cc1cc(F)cc([C@@H](C)[C@H](NS(=O)(=O)c2ccc(Cl)cc2C(N)=O)c2n[nH]c(=O)o2)c1C | 450
Cc1cccc([C@@H](C)[C@H](NS(=O)(=O)c2ccc(Br)cc2C(N)=O)c2n[nH]c(=O)o2)c1C | 380
Cc1c(Cl)ccc(F)c1[C@@H](C)[C@H](NS(=O)(=O)c1ccc(Cl)cc1C(N)=O)c1n[nH]c(=O)o1 | 250
C[C@H](c1cccc2ccccc12)[C@H](NS(=O)(=O)c1ccc(Cl)cc1Cl)c1n[nH]c(=O)o1 | 840
Cc1ccc(F)c([C@@H](C)[C@H](NS(=O)(=O)c2ccc(Cl)cc2C#N)c2n[nH]c(=O)o2)c1C | 360
COc1cc(Cl)ccc1S(=O)(=O)N[C@H](c1n[nH]c(=O)o1)[C@H](C)c1cccc(C)c1C(C)C | 840
C[C@H](c1c(F)ccc2ccccc12)[C@H](NS(=O)(=O)c1ccc(Br)cc1C(N)=O)c1n[nH]c(=O)o1 | 100
CCc1ccc(F)c([C@@H](C)[C@H](NS(=O)(=O)c2ccc(Br)cc2C(N)=O)c2n[nH]c(=O)o2)c1C | 100
Cc1ccc(F)c([C@@H](C)[C@H](NS(=O)(=O)c2ccc(Cl)c(C(=O)N3CCOCC3)n2)c2n[nH]c(=O)o2)c1C | 60
Cc1ccc(F)c([C@@H](C)[C@H](NS(=O)(=O)c2ccc(Br)cc2C#N)c2n[nH]c(=O)o2)c1C | 200
C[C@H](c1c(F)ccc2ccccc12)[C@H](NS(=O)(=O)c1ccc(Cl)cc1C(N)=O)c1n[nH]c(=O)o1 | 110
Cc1ccc(F)c([C@@H](C)[C@H](NS(=O)(=O)c2ccc(Cl)cc2-c2ccno2)c2n[nH]c(=O)o2)c1C | 230
Cc1ccc(F)c([C@@H](C)[C@H](NS(=O)(=O)c2cc(C(=O)N(C)C)ccc2C(N)=O)c2n[nH]c(=O)o2)c1C | 140
Cc1ccc(F)c([C@@H](C)[C@H](NS(=O)(=O)c2ccccc2C#N)c2n[nH]c(=O)o2)c1C | 640
Cc1c(Br)ccc(F)c1[C@@H](C)[C@H](NS(=O)(=O)c1ccc(C(F)(F)F)cc1C(N)=O)c1n[nH]c(=O)o1 | 200
COc1cc(Cl)ccc1S(=O)(=O)N[C@H](c1n[nH]c(=O)o1)[C@H](C)c1c(F)ccc2ccccc12 | 200

SMILES | IC50 [nM]
Cc1c(F)ccc(F)c1[C@@H](C)[C@H](NS(=O)(=O)c1ccc(Cl)cc1C(N)=O)c1n[nH]c(=O)o1 | 500
COC(=O)c1nc(S(=O)(=O)N[C@H](c2n[nH]c(=O)o2)[C@H](C)c2c(F)ccc(C)c2C)ccc1Cl | 60
Cc1c(Br)ccc(F)c1[C@@H](C)[C@H](NS(=O)(=O)c1ccc(Cl)cc1C(N)=O)c1n[nH]c(=O)o1 | 150
C[C@H](c1cccc2c1CCCC2)[C@H](NS(=O)(=O)c1ccc(Cl)cn1)c1n[nH]c(=O)o1 | 770
Cc1ccc(F)c([C@@H](C)[C@H](NS(=O)(=O)c2ccc(Cl)c3c2OCC(=O)N3CC(F)F)c2n[nH]c(=O)o2)c1C | 130
CCc1ccc(F)c([C@@H](C)[C@H](NS(=O)(=O)c2ccc(Cl)cc2C(N)=O)c2n[nH]c(=O)o2)c1C | 180
Cc1c(C(F)(F)F)ccc(F)c1[C@@H](C)[C@H](NS(=O)(=O)c1ccc(Cl)cc1C(N)=O)c1n[nH]c(=O)o1 | 550
Cc1ccc(F)c([C@@H](C)[C@H](NS(=O)(=O)c2ccc(Cl)c(C(=O)N3C4CCC3COC4)n2)c2n[nH]c(=O)o2)c1C | 70
Cc1ccc(F)c([C@@H](C)[C@H](NS(=O)(=O)c2cnc(Cl)cc2C(N)=O)c2n[nH]c(=O)o2)c1C | 130
Cc1ccc(F)c([C@@H](C)[C@H](NS(=O)(=O)c2ccc(Cl)c3c2OCCC3=O)c2n[nH]c(=O)o2)c1C | 150
COc1cc(Cl)ccc1S(=O)(=O)N[C@H](c1n[nH]c(=O)o1)[C@H](C)c1c(C)c(C)cc(F)c1F | 160
Cc1c(C2CC2)ccc(F)c1[C@@H](C)[C@H](NS(=O)(=O)c1ccc(Cl)cc1C(N)=O)c1n[nH]c(=O)o1 | 160
COc1cc(Cl)ccc1S(=O)(=O)N[C@H](c1n[nH]c(=O)o1)[C@H](C)c1c(F)ccc(C#N)c1C | 840
Cc1cccc([C@@H](C)[C@H](NS(=O)(=O)c2ccc(Cl)cc2C(N)=O)c2n[nH]c(=O)o2)c1C | 300
Cc1ccc(F)c([C@@H](C)[C@H](NS(=O)(=O)c2ccc(C(F)(F)F)cc2C(N)=O)c2n[nH]c(=O)o2)c1C | 100
Cc1ccc(F)c([C@@H](C)[C@H](NS(=O)(=O)c2c(F)cccc2F)c2n[nH]c(=O)o2)c1C | 960
Cc1ccc(F)c([C@@H](C)[C@H](NS(=O)(=O)c2c(F)cc(Cl)cc2F)c2n[nH]c(=O)o2)c1C | 270
Cc1ccc(F)c([C@@H](C)[C@H](NS(=O)(=O)c2cccc3c2OCCN3C(=O)C2CC2)c2n[nH]c(=O)o2)c1C | 290
CC1CCc2cccc(C(C)[C@H](NS(=O)(=O)c3ccc(Br)cn3)c3n[nH]c(=O)o3)c21 (stereo not given in full) | 600
C[C@H](c1cccc2c1CCC2)[C@H](NS(=O)(=O)c1ccc(Br)cc1F)c1n[nH]c(=O)o1 | 990
Cc1ccc(F)c([C@@H](C)[C@H](NS(=O)(=O)c2ccc(Cl)c3c2C(=O)CCC3)c2n[nH]c(=O)o2)c1C | 240
Cc1ccc(F)c([C@@H](C)[C@H](NS(=O)(=O)c2ccc(Cl)c(C(=O)N3CC4CCC(C3)O4)n2)c2n[nH]c(=O)o2)c1C | 30
Cc1ccc(F)c([C@@H](C)[C@H](NS(=O)(=O)c2ccc(Cl)c3c2OCC(=O)N3C)c2n[nH]c(=O)o2)c1C | 100
Cc1ccc(S(=O)(=O)N[C@H](c2n[nH]c(=O)o2)[C@H](C)c2c(F)ccc(C)c2C)c(C(N)=O)c1 | 140
Cc1ccc(F)c([C@@H](C)[C@H](NS(=O)(=O)c2ccc(Cl)c(C#N)n2)c2n[nH]c(=O)o2)c1C | 160

SMILES | IC50 [nM]
Cc1c(Br)ccc(F)c1[C@@H](C)[C@H](NS(=O)(=O)c1ccc(Br)cc1C(N)=O)c1n[nH]c(=O)o1 | 130
Cc1ccc(F)c([C@@H](C)[C@H](NS(=O)(=O)c2cc(C(=O)N(C)C)c(Cl)cc2C(N)=O)c2n[nH]c(=O)o2)c1C | 40
Cc1cccc2cccc([C@@H](C)[C@H](NS(=O)(=O)c3ccc(Cl)c4c3OCCC4(F)F)c3n[nH]c(=O)o3)c12 | 280
Cc1ccc(F)c([C@@H](C)[C@H](NS(=O)(=O)c2ccc(C3CC3)cc2C(N)=O)c2n[nH]c(=O)o2)c1C | 130
Cc1ccc(S(=O)(=O)N[C@H](c2n[nH]c(=O)o2)[C@H](C)c2c(F)ccc3ccccc23)c(C(N)=O)c1 | 170
COc1cc(Cl)cnc1S(=O)(=O)N[C@H](c1n[nH]c(=O)o1)[C@H](C)c1c(F)ccc(C)c1C | 150
CCc1ccc(S(=O)(=O)N[C@H](c2n[nH]c(=O)o2)[C@H](C)c2c(F)ccc(C)c2C)c(C(N)=O)c1 | 130
CCc1cccc([C@@H](C)[C@H](NS(=O)(=O)c2ccc(Cl)cc2OC)c2n[nH]c(=O)o2)c1C | 400
Cc1ccc(F)c([C@@H](C)[C@H](NS(=O)(=O)c2cccc3c2OC(C)(C)CC3=O)c2n[nH]c(=O)o2)c1C | 240
CC(=O)OC1(C)CCOc2c(S(=O)(=O)N[C@H](c3n[nH]c(=O)o3)[C@H](C)c3c(F)ccc(Cl)c3C)ccc(Cl)c21 (stereo not given in full) | 300
Cc1ccc(F)c([C@@H](C)[C@H](NS(=O)(=O)c2ccc(Cl)nc2C(N)=O)c2n[nH]c(=O)o2)c1C | 190
C[C@H](c1cc(F)cc2ccccc12)[C@H](NS(=O)(=O)c1ccc(Cl)cc1C(N)=O)c1n[nH]c(=O)o1 | 600
COc1cc(Cl)ccc1S(=O)(=O)N[C@H](c1n[nH]c(=O)o1)[C@H](C)c1c(F)ccc(C)c1C | 140
Cc1ccc(F)c([C@@H](C)[C@H](NS(=O)(=O)c2ccc(Cl)c3c2OCCN3CC(F)F)c2n[nH]c(=O)o2)c1C | 140
COc1cc(Cl)ccc1S(=O)(=O)N[C@H](c1n[nH]c(=O)o1)[C@H](C)c1cccc2c1CC(C)C2 (stereo not given in full) | 700
Cc1ccc(F)c([C@@H](C)[C@H](NS(=O)(=O)c2ccccc2C(N)=O)c2n[nH]c(=O)o2)c1C | 260
Cc1ccc(F)c([C@@H](C)[C@H](NS(=O)(=O)c2ccc(Cl)c(C(N)=O)n2)c2n[nH]c(=O)o2)c1C | 100
Cc1cc(F)c(F)c([C@@H](C)[C@H](NS(=O)(=O)c2ccc(Cl)cc2C(N)=O)c2n[nH]c(=O)o2)c1C | 140
Cc1ccc(F)c([C@@H](C)[C@H](NS(=O)(=O)c2ccc(Cl)c(C(=O)N3CCC4(CCC4)C3)n2)c2n[nH]c(=O)o2)c1C | 180
C[C@H](c1cccc2c1-c1ccccc1C2)[C@H](NS(=O)(=O)c1ccc(Br)cn1)c1n[nH]c(=O)o1 | 850
COc1c(S(=O)(=O)N[C@H](c2n[nH]c(=O)o2)[C@H](C)c2c(F)ccc(C)c2C)ccc(Cl)c1C(C)(C)OC(C)=O | 430
CC(=O)OC1(C(F)(F)F)CCOc2c1cccc2S(=O)(=O)N[C@H](c1n[nH]c(=O)o1)[C@H](C)c1c(F)ccc(C)c1C (stereo not given in full) | 270
Cc1ccc(F)c([C@@H](C)[C@H](NS(=O)(=O)c2ccc(Cl)cc2C(N)=O)c2n[nH]c(=O)o2)c1 | 240
COC(=O)c1cc(Cl)ccc1S(=O)(=O)N[C@H](c1n[nH]c(=O)o1)[C@H](C)c1c(F)ccc(C)c1C | 410
C[C@H](c1cccc2c1Cc1ccccc1-2)[C@H](NS(=O)(=O)c1ccc(Br)cn1)c1n[nH]c(=O)o1 | 800
